In ChEMBL document CHEMBL3627608, “Crystal structures of human RIP2 kinase catalytic domain complexed with ATP-competitive inhibitors: Foundations for understanding inhibitor selectivity” (Bioorg Med Chem, 2015):

Experiments:
[1] = target: Proto-oncogene tyrosine-protein kinase Src (Homo sapiens) (UniProt P12931); test: Inhibition of c-Src (unknown origin) at 10 uM after 120 mins P33 radiolabeled kinase activity assay
[2] = target: Dual specificity tyrosine-phosphorylation-regulated kinase 1B (Homo sapiens) (UniProt Q9Y463); test: Inhibition of DYRK1B (unknown origin) at 10 uM after 120 mins P33 radiolabeled kinase activity assay
Sequence of Dual specificity tyrosine-phosphorylation-regulated kinase 1B (Homo sapiens) (Q9Y463 whole entry, looked up): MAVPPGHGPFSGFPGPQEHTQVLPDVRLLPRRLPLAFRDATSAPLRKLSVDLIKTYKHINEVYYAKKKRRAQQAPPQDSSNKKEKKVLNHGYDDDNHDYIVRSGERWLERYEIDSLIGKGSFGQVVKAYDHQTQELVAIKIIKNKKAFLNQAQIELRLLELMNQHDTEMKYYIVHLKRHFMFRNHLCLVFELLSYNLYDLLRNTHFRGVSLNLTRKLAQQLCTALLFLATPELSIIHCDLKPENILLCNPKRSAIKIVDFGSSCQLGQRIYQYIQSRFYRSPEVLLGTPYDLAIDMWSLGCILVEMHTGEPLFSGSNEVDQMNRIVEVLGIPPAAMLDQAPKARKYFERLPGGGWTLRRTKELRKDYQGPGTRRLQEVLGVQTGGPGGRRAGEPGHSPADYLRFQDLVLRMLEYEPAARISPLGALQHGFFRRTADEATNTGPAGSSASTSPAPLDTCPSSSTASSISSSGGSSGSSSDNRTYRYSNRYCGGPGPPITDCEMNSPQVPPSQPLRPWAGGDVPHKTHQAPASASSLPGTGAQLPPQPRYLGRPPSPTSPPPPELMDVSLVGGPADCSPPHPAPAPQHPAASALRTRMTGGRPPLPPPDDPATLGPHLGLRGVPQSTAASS

[3] = target: Serine/threonine-protein kinase PLK3 (Homo sapiens) (UniProt Q9H4B4); test: Inhibition of PLK3 (unknown origin) at 10 uM after 120 mins P33 radiolabeled kinase activity assay
Sequence of Serine/threonine-protein kinase PLK3 (Homo sapiens) (Q9H4B4 whole entry, looked up): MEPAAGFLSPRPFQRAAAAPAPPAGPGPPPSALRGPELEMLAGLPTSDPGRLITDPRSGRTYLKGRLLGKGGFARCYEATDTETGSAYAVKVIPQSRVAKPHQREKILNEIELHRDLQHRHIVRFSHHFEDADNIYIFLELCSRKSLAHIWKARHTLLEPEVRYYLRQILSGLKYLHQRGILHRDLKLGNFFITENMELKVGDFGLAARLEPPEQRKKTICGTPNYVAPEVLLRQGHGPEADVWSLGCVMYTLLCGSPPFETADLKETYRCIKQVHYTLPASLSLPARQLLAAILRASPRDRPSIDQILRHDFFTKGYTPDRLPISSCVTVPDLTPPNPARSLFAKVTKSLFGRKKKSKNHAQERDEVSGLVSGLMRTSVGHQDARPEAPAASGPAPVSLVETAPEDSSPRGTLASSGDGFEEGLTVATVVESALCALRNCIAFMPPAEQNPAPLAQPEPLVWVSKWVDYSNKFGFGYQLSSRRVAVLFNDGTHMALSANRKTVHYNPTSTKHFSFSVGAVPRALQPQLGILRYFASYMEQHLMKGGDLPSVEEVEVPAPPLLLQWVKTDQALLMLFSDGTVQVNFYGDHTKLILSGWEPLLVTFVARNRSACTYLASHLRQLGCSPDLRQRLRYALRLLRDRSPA

[4] = target: T1, Serine/threonine-protein kinase Sgk1 (Homo sapiens) (UniProt O00141); test: Inhibition of SGK1 (unknown origin) at 10 uM after 120 mins P33 radiolabeled kinase activity assay
T1 sequence (whole entry): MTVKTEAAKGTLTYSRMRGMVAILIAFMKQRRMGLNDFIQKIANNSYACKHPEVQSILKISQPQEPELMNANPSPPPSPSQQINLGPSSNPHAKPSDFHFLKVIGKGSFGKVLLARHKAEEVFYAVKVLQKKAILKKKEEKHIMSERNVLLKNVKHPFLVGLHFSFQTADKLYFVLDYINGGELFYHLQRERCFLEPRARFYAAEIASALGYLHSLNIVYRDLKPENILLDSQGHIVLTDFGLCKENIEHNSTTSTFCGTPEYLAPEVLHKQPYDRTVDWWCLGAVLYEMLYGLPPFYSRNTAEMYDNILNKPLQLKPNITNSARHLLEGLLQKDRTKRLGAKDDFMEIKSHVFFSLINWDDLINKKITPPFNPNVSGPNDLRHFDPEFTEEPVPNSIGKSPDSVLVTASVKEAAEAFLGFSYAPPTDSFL

[5] = target: Tyrosine-protein kinase Fer (Homo sapiens) (UniProt P16591); test: Inhibition of FER (unknown origin) at 10 uM after 120 mins P33 radiolabeled kinase activity assay
[6] = target: cAMP-dependent protein kinase catalytic subunit gamma (Homo sapiens) (UniProt P22612); test: Inhibition of PKAcgamma (unknown origin) at 10 uM after 120 mins P33 radiolabeled kinase activity assay
Sequence of cAMP-dependent protein kinase catalytic subunit gamma (Homo sapiens) (P22612 2-351 limits assumed): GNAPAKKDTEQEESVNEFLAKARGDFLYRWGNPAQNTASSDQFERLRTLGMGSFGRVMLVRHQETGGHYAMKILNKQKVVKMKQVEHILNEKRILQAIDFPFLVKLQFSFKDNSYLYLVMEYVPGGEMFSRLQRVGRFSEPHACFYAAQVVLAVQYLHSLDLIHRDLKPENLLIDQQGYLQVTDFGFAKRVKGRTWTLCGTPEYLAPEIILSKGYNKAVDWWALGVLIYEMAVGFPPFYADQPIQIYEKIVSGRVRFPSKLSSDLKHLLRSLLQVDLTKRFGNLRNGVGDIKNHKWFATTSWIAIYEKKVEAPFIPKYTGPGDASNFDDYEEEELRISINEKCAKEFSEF

[7] = target: Myosin light chain kinase, smooth muscle (Homo sapiens) (UniProt Q15746); test: Inhibition of MLCK (unknown origin) at 10 uM after 120 mins P33 radiolabeled kinase activity assay
[8] = target: Ribosomal protein S6 kinase beta-2 (Homo sapiens) (UniProt Q9UBS0); test: Inhibition of RPS6KB2 (unknown origin) at 10 uM after 120 mins P33 radiolabeled kinase activity assay
Sequence of Ribosomal protein S6 kinase beta-2 (Homo sapiens) (Q9UBS0 whole entry): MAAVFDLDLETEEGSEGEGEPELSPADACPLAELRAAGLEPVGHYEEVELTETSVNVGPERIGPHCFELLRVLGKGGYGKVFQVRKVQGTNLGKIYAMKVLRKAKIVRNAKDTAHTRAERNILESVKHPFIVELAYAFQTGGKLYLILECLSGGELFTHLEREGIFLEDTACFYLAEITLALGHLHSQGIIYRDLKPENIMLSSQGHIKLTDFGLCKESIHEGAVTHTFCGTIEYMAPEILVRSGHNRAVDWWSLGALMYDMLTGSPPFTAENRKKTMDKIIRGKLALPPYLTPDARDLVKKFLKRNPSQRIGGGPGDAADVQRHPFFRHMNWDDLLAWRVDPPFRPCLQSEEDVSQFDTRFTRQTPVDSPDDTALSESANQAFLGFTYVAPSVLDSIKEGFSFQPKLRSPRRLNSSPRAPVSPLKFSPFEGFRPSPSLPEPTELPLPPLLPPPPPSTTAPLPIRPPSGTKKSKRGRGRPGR

[9] = target: RAC-beta serine/threonine-protein kinase (Homo sapiens) (UniProt P31751); test: Inhibition of AKT2 (unknown origin) at 10 uM after 120 mins P33 radiolabeled kinase activity assay
Sequence of RAC-beta serine/threonine-protein kinase (Homo sapiens) (P31751 whole entry): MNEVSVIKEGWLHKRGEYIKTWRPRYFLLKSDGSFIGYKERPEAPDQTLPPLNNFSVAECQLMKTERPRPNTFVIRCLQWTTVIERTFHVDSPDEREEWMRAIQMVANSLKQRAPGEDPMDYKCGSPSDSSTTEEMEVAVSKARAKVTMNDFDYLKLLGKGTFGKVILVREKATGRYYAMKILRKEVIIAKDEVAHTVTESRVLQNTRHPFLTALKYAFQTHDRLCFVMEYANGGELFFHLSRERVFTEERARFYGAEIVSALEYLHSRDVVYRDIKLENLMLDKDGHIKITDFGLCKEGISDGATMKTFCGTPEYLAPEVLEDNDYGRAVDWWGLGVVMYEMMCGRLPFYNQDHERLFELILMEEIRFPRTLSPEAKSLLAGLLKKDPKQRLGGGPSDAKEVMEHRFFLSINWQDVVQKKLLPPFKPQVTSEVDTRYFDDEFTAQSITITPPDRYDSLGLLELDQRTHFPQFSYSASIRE

[10] = target: T2, Receptor-interacting serine/threonine-protein kinase 1 (Homo sapiens) (UniProt Q13546); test: Inhibition of RIP (unknown origin) at 10 uM after 120 mins P33 radiolabeled kinase activity assay
T2 sequence (whole entry): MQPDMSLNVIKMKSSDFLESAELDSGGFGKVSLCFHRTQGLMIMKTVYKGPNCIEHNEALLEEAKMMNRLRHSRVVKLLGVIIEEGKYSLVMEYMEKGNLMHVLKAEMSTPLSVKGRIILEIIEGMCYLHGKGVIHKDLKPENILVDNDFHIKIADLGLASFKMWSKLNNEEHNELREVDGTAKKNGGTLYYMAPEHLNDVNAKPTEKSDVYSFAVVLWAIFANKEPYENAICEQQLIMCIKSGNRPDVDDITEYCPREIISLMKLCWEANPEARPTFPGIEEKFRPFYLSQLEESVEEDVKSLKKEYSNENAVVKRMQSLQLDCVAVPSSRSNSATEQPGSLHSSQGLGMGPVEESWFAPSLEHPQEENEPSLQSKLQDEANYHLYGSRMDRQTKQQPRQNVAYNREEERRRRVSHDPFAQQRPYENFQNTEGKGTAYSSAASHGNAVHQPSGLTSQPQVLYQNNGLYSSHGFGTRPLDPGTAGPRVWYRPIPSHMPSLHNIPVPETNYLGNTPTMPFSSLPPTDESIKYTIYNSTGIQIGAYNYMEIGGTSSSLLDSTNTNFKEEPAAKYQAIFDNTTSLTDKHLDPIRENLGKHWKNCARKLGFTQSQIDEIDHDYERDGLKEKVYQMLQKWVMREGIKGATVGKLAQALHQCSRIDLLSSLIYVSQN

[11] = target: Platelet-derived growth factor receptor beta (Homo sapiens) (UniProt P09619); test: Inhibition of PDGFRbeta (unknown origin) at 10 uM after 120 mins P33 radiolabeled kinase activity assay
[12] = target: Hepatocyte growth factor receptor (Homo sapiens) (UniProt P08581); test: Inhibition of c-MET (unknown origin) at 10 uM after 120 mins P33 radiolabeled kinase activity assay
[13] = target: T3, Mitogen-activated protein kinase 12 (Homo sapiens) (UniProt P53778); test: Inhibition of P38gamma (unknown origin) at 10 uM after 120 mins P33 radiolabeled kinase activity assay
T3 sequence (whole entry): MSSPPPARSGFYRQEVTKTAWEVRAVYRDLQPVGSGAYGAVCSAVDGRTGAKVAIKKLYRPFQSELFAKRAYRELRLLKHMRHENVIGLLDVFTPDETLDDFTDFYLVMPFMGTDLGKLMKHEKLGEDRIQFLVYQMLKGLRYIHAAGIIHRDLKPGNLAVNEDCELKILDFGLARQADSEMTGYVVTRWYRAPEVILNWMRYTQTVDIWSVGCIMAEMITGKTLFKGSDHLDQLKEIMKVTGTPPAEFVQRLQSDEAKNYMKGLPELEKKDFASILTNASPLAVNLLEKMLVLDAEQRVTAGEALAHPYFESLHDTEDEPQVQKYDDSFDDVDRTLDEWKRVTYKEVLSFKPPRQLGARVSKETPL

Homo sapiens = species: Homo sapiens; test: Inhibition of PKCbeta1 (unknown origin) at 10 uM after 120 mins P33 radiolabeled kinase activity assay
[14] = target: Serine/threonine-protein kinase N2 (Homo sapiens) (UniProt Q16513); test: Inhibition of PKN2 (unknown origin) at 10 uM after 120 mins P33 radiolabeled kinase activity assay
[15] = target: G protein-coupled receptor kinase 5 (Homo sapiens) (UniProt P34947); test: Inhibition of GRK5 (unknown origin) at 10 uM after 120 mins P33 radiolabeled kinase activity assay
[16] = target: Homeodomain-interacting protein kinase 1 (Homo sapiens) (UniProt Q86Z02); test: Inhibition of HIPK1 (unknown origin) at 10 uM after 120 mins P33 radiolabeled kinase activity assay
Sequence of Homeodomain-interacting protein kinase 1 (Homo sapiens) (Q86Z02 whole entry, looked up): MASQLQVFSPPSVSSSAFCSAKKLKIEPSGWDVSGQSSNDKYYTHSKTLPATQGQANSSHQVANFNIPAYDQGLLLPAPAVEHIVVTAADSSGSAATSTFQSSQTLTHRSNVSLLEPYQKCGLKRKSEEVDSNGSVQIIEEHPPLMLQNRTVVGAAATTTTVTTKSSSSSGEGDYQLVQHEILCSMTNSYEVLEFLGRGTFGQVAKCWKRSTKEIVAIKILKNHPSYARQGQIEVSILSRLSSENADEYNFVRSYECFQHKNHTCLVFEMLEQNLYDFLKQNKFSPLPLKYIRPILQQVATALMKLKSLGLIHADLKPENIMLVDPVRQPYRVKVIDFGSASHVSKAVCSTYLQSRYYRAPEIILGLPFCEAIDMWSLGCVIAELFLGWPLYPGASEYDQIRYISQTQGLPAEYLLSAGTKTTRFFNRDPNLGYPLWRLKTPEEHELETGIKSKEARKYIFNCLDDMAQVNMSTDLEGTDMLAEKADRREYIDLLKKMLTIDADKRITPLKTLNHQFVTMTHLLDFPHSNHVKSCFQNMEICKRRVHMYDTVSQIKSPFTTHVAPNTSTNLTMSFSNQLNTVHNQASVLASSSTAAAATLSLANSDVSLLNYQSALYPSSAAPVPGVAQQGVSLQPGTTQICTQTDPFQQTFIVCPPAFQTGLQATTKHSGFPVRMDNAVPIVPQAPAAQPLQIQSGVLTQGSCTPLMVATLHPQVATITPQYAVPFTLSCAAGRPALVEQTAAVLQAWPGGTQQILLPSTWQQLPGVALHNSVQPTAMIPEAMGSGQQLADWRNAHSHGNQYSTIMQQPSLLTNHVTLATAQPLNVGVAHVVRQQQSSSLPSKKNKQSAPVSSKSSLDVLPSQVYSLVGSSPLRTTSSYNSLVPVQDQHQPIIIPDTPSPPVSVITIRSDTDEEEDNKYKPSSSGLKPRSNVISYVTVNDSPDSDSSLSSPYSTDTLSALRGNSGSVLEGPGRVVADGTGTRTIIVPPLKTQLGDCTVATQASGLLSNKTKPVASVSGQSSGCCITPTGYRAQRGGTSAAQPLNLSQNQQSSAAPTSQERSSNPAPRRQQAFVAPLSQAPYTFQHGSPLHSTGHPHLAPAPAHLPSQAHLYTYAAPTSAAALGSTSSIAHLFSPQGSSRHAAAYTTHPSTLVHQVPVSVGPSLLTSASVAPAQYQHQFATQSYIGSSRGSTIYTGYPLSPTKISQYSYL

[17] = target: Receptor-interacting serine/threonine-protein kinase 3 (Homo sapiens) (UniProt Q9Y572); test: Inhibition of RIPK3 (unknown origin) at 10 uM after 120 mins P33 radiolabeled kinase activity assay
Sequence of Receptor-interacting serine/threonine-protein kinase 3 (Homo sapiens) (Q9Y572 whole entry, looked up): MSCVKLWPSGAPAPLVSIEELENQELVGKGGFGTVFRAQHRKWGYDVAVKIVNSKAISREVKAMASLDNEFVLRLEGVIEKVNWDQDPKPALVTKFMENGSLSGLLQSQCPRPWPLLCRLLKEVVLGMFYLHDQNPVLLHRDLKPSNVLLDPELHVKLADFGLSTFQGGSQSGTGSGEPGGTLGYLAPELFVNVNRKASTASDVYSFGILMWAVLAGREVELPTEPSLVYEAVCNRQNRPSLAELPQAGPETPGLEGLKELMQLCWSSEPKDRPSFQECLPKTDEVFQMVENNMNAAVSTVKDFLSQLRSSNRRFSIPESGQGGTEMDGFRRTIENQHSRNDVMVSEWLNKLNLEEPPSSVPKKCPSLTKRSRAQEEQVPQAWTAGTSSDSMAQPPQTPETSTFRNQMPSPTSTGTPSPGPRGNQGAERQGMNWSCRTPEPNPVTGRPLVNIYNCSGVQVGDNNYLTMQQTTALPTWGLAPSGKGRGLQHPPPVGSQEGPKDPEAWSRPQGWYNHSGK

Sequence of Proto-oncogene tyrosine-protein kinase Src (Homo sapiens) (P12931 2-536 limits assumed): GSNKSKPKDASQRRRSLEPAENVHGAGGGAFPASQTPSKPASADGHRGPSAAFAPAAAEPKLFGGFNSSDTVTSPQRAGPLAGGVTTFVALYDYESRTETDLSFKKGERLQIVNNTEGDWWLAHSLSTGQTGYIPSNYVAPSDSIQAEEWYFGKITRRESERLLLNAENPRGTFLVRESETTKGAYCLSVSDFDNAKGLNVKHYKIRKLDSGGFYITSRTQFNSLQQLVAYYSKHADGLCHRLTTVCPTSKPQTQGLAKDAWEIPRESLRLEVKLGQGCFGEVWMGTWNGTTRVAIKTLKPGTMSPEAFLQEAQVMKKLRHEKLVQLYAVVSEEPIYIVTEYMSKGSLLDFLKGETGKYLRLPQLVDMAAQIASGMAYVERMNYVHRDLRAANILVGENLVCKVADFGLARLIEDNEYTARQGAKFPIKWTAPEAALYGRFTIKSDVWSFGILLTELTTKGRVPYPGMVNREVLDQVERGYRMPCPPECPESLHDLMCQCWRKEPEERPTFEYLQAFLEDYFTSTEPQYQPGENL

Row | inhibition [1] | inhibition [2] | inhibition [3] | inhibition [4] | inhibition [5] | inhibition [6] | inhibition [7] | inhibition [8] | inhibition [9] | inhibition [10] | inhibition [11] | inhibition [12] | inhibition [13] | inhibition (Homo sapiens) | inhibition [14] | inhibition [15] | inhibition [16] | inhibition [17] | SMILES
1 | 99.1% | 27.5% | 3.68% | 30.1% | 65.2% | 9.35% | 15.6% | 11.1% | 21.6% | 54.4% | 91% | 16.8% | 7.45% | -3.18% | 26.8% | -3.67% | 81.1% | 83.1% | CS(=O)(=O)c1cccc(Nc2nccc(-c3sc(N4CCOCC4)nc3-c3cccc(NS(=O)(=O)c4c(F)cccc4F)c3)n2)c1
2 | 81.1% | 11.4% | 0.99% | 10.1% | 0.68% | 0.62% | 17.6% | 6.27% | 18.9% | 33.1% | 11.1% | 10.9% | -3.25% | 3% | 28% | -6.1% | -8.42% | 27.6% | COCCNC(=O)c1ccc2c(c1)nc(-c1cnc(-c3ccc(Cl)cc3)[nH]1)n2CCOC
3 | 85.8% | 14.5% | -1.93% | 1.68% | 19.9% | 78.7% | 19.4% | 52.2% | 20.6% | 53.2% | 99.5% | 92.4% | 97.4% | -4.39% | 15.8% | -7.31% | 8.52% | 81.4% | CC(C)(C)c1cc(NC(=O)Nc2ccc(Oc3ccncc3)cc2)no1
